Reference: patent publication US20250074920A1, “MACROCYCLIC COMPOUNDS AND USE AS KINASE INHIBITORS” (BLOSSOMHILL THERAPEUTICS, INC., priority 2022, published 2025)

Key:
Experiment in all cases: KINOMEscan kinase binding assay
FGFR2 = details: at 1 μM
Procedure, shortened: (§1)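 KINOMEscan competition assay. T7-phage kinase fusions (E. coli lysates) or DNA-tagged HEK-293 kinases; immobilized biotinylated ligand on beads; 1 h RT incubation; qPCR detection of bound kinase. Output: % Ctrl or Kd.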

[1] = test system: TYK2(JH1domain-catalytic); details: for % Ctrl: TYK2(JH1domain-catalytic), at 1 μM; for Kd: read-out: TYK2(JH1 domain-catalytic) Kd
Procedure, shortened: (§2)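 qPCR read-out of kinase retained on ligand-coated streptavidin beads. Binding buffer: 20% SeaBlock, 0.17×PBS, 0.05% Tween 20, 6 mM DTT; 1 h RT with shaking. % Ctrl = (test − positive control)/(negative control − positive control)×100; lower values mean stronger binding.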

PYK2 = details: at 1 μM
Procedure, shortened: as §1

[2] = test system: ABL1(E255K)-phosphorylated; details: at 1 μM
Procedure, shortened: as §1

[3] = test system: ABL1(M351T)-phosphorylated; details: at 1 μM
Procedure, shortened: as §1

[4] = test system: ABL1(Q252H)-phosphorylated; details: at 1 μM
Procedure, shortened: as §1

FES = details: at 1 μM
Procedure, shortened: as §1

ERBB4 = details: at 1 μM
Procedure, shortened: as §1

CSK = details: at 1 μM
Procedure, shortened: as §1

ALK = details: at 1 μM
Procedure, shortened: as §1

MUSK = details: at 1 μM
Procedure, shortened: as §1

DDR2 = details: at 1 μM
Procedure, shortened: as §1

BLK = details: at 1 μM
Procedure, shortened: as §1

[5] = test system: JAK1(JH2domain-pseudokinase); details: for % Ctrl: JAK1(JH2domain-pseudokinase), at 1 μM; for Kd: read-out: JAK1(JH2 domain-pseudokinase) Kd
Procedure, shortened: as §1

EPHA5 = details: at 1 μM
Procedure, shortened: as §2

RET(M918T) = details: at 1 μM
Procedure, shortened: as §1

[6] = test system: TYK2(JH2domain-pseudokinase); details: for % Ctrl: TYK2(JH2domain-pseudokinase), at 1 μM; for Kd: read-out: TYK2(JH2 domain-pseudokinase) Kd
Procedure, shortened: as §2

EGFR(G719S) = details: at 1 μM
Procedure, shortened: as §1

TRKC = details: at 1 μM
Procedure, shortened: as §1

ABL1-nonphosphorylated = details: at 1 μM
Procedure, shortened: as §1

EGFR(G719C) = details: at 1 μM
Procedure, shortened: as §1

KIT(D816V) = details: at 1 μM
Procedure, shortened: as §1

TRKA = details: at 1 μM
Procedure, shortened: as §1

RET(V804L) = details: at 1 μM
Procedure, shortened: as §1

LYN = details: at 1 μM
Procedure, shortened: as §1

EPHB2 = details: at 1 μM
Procedure, shortened: as §1

FLT3(D835Y) = details: at 1 μM
Procedure, shortened: as §1

FGFR1 = details: at 1 μM
Procedure, shortened: as §1

ERBB3 = details: at 1 μM
Procedure, shortened: as §1

EGFR(L858R, T790M) = details: at 1 μM
Procedure, shortened: as §2

TIE2 = details: at 1 μM
Procedure, shortened: as §1

TXK = details: at 1 μM
Procedure, shortened: as §1

[7] = test system: JAK3(JH1domain-catalytic); details: for % Ctrl: JAK3(JH1domain-catalytic), at 1 μM; for Kd: read-out: JAK3(JH1 domain-catalytic) Kd
Procedure, shortened: as §2

FGFR4 = details: at 1 μM
Procedure, shortened: as §1

ALK(L1196M) = details: at 1 μM
Procedure, shortened: as §1

EPHA6 = details: at 1 μM
Procedure, shortened: as §2

INSR = details: at 1 μM
Procedure, shortened: as §1

TNK1 = details: at 1 μM
Procedure, shortened: as §1

FAK = details: at 1 μM
Procedure, shortened: as §1

With `Cc1cc2c([nH]1)/C=C1\C(=O)Nc3c(Cl)cc(cc31)-c1cn(C)nc1COC[C@@H](C)NC2=O` [Cpd. 3, [3a(4)Z,10R]-20-chloro-6,10,15-trimethyl-10,11,13,15-tetrahydro-2H-1,17-(ethanediylidene)pyrazolo[4,3-m]dipyrrolo[3,2-f:3′,4′-i][1,4]oxazacyclopentadecine-3,8(5H,9H)-dione] the “% Ctrl” value (FGFR2) was 90%, the “% Ctrl” value [1] was 71% and the Kd [1] was > 10000 nM. The “% Ctrl” value (PYK2) was 94%, the “% Ctrl” value [2] was 100% and the “% Ctrl” value [3] was 99%. For the same molecule, the “% Ctrl” value [4] was 100%, the “% Ctrl” value (FES) was 99% and the “% Ctrl” value (ERBB4) was 96%. For the same molecule, the “% Ctrl” value (CSK) was 94%, the “% Ctrl” value (ALK) was 100% and the “% Ctrl” value (MUSK) was 98%. The “% Ctrl” value (DDR2) was 100%, the “% Ctrl” value (BLK) was 92% and the “% Ctrl” value [5] was 3.1%. The Kd [5] was 120 nM, the “% Ctrl” value (EPHA5) was 100% and the “% Ctrl” value (RET(M918T)) was 100%. The “% Ctrl” value [6] was 0%, the Kd [6] was 3 nM and the “% Ctrl” value (EGFR(G719S)) was 100%. The “% Ctrl” value (TRKC) was 100%, the “% Ctrl” value (ABL1-nonphosphorylated) was 92% and the “% Ctrl” value (EGFR(G719C)) was 100%. For the same molecule, the “% Ctrl” value (KIT(D816V)) was 97%, the “% Ctrl” value (TRKA) was 61% and the “% Ctrl” value (RET(V804L)) was 98%. The “% Ctrl” value (LYN) was 90%, the “% Ctrl” value (EPHB2) was 99% and the “% Ctrl” value (FLT3(D835Y)) was 81%. The “% Ctrl” value (FGFR1) was 80%, the “% Ctrl” value (ERBB3) was 74% and the “% Ctrl” value (EGFR(L858R, T790M)) was 72%. The “% Ctrl” value (TIE2) was 97%, the “% Ctrl” value (TXK) was 91% and the “% Ctrl” value [7] was 70%. For the same molecule, the Kd [7] was 7700 nM, the “% Ctrl” value (FGFR4) was 92% and the “% Ctrl” value (ALK(L1196M)) was 94%. For the same molecule, the “% Ctrl” value (EPHA6) was 93%, the “% Ctrl” value (INSR) was 78% and the “% Ctrl” value (TNK1) was 94%. For the same molecule, the “% Ctrl” value (FAK) was 100%.
With `Cc1cc2c([nH]1)/C=C1\C(=O)Nc3ccc(cc31)-c1c(nn(C)c1C)COCCN(C)C2=O` [Cpd. 2, [3a(4)Z]-6,9,15,16-tetramethyl-10,11,13,15-tetrahydro-2H-1,17-(ethanediylidene)pyrazolo[4,3-m]dipyrrolo[3,2-f:3′,4′-i][1,4]oxazacyclopentadecine-3,8(5H,9H)-dione] the “% Ctrl” value (FGFR2) was 85%, the “% Ctrl” value [1] was 100% and the Kd [1] was > 10000 nM. The “% Ctrl” value (PYK2) was 100%, the “% Ctrl” value [2] was 45% and the “% Ctrl” value [3] was 57%. For the same molecule, the “% Ctrl” value [4] was 62%, the “% Ctrl” value (FES) was 100% and the “% Ctrl” value (ERBB4) was 67%. The “% Ctrl” value (CSK) was 100%, the “% Ctrl” value (ALK) was 100% and the “% Ctrl” value (MUSK) was 100%. The “% Ctrl” value (DDR2) was 100%, the “% Ctrl” value (BLK) was 98% and the “% Ctrl” value [5] was 30%. The “% Ctrl” value (EPHA5) was 99%, the “% Ctrl” value (RET(M918T)) was 92% and the “% Ctrl” value [6] was 0.6%. For the same molecule, the Kd [6] was 1.2 nM, the “% Ctrl” value (EGFR(G719S)) was 77% and the “% Ctrl” value (TRKC) was 22%. The “% Ctrl” value (ABL1-nonphosphorylated) was 55%, the “% Ctrl” value (EGFR(G719C)) was 80% and the “% Ctrl” value (KIT(D816V)) was 60%. For the same molecule, the “% Ctrl” value (TRKA) was 20%, the “% Ctrl” value (RET(V804L)) was 80% and the “% Ctrl” value (LYN) was 74%. The “% Ctrl” value (EPHB2) was 97%, the “% Ctrl” value (FLT3(D835Y)) was 36% and the “% Ctrl” value (FGFR1) was 100%. The “% Ctrl” value (ERBB3) was 100%, the “% Ctrl” value (EGFR(L858R, T790M)) was 62% and the “% Ctrl” value (TIE2) was 63%. For the same molecule, the “% Ctrl” value (TXK) was 100%, the “% Ctrl” value [7] was 49% and the Kd [7] was 510 nM. The “% Ctrl” value (FGFR4) was 100%, the “% Ctrl” value (ALK(L1196M)) was 94% and the “% Ctrl” value (EPHA6) was 100%. The “% Ctrl” value (INSR) was 100%, the “% Ctrl” value (TNK1) was 92% and the “% Ctrl” value (FAK) was 96%.
For `Cc1cc2c([nH]1)/C=C1\C(=O)Nc3c(Cl)cc(cc31)-c1cn(C)nc1COC[C@@H](C)N(C)C2=O` [Cpd. 5, [3a(4)Z,10R]-20-chloro-6,9,10,15-tetramethyl-10,11,13,15-tetrahydro-2H-1,17-(ethanediylidene)pyrazolo[4,3-m]dipyrrolo[3,2-f:3′,4′-i][1,4]oxazacyclopentadecine-3,8(5H,9H)-dione], the “% Ctrl” value (FGFR2) was 100%, the “% Ctrl” value [1] was 69% and the Kd [1] was > 10000 nM. For the same molecule, the “% Ctrl” value (PYK2) was 83%, the “% Ctrl” value [2] was 79% and the “% Ctrl” value [3] was 94%. The “% Ctrl” value [4] was 89%, the “% Ctrl” value (FES) was 89% and the “% Ctrl” value (ERBB4) was 97%. For the same molecule, the “% Ctrl” value (CSK) was 96%, the “% Ctrl” value (ALK) was 71% and the “% Ctrl” value (MUSK) was 100%. The “% Ctrl” value (DDR2) was 76%, the “% Ctrl” value (BLK) was 87% and the “% Ctrl” value [5] was 0.85%. For the same molecule, the Kd [5] was 50 nM, the “% Ctrl” value (EPHA5) was 97% and the “% Ctrl” value (RET(M918T)) was 87%. The “% Ctrl” value [6] was 0%, the Kd [6] was 0.18 nM and the “% Ctrl” value (EGFR(G719S)) was 98%. The “% Ctrl” value (TRKC) was 98%, the “% Ctrl” value (ABL1-nonphosphorylated) was 87% and the “% Ctrl” value (EGFR(G719C)) was 100%. For the same molecule, the “% Ctrl” value (KIT(D816V)) was 100%, the “% Ctrl” value (TRKA) was 53% and the “% Ctrl” value (RET(V804L)) was 84%. The “% Ctrl” value (LYN) was 91%, the “% Ctrl” value (EPHB2) was 90% and the “% Ctrl” value (FLT3(D835Y)) was 100%. For the same molecule, the “% Ctrl” value (FGFR1) was 84%, the “% Ctrl” value (ERBB3) was 71% and the “% Ctrl” value (EGFR(L858R, T790M)) was 64%. For the same molecule, the “% Ctrl” value (TIE2) was 92%, the “% Ctrl” value (TXK) was 94% and the “% Ctrl” value [7] was 79%. For the same molecule, the Kd [7] was > 10000 nM, the “% Ctrl” value (FGFR4) was 88% and the “% Ctrl” value (ALK(L1196M)) was 86%. The “% Ctrl” value (EPHA6) was 91%, the “% Ctrl” value (INSR) was 94% and the “% Ctrl” value (TNK1) was 91%. The “% Ctrl” value (FAK) was 96%.
